From patent US12599136B2, “Substituted isophthalic acid diamides and their use as herbicides” (Bayer Aktiengesellschaft, priority 2020, dated 2026)

Columns and labels:
Assay type in all cases: in vivo
[1] = tested on: Setaria viridis; assay: Pre-emergence herbicidal action against SETVI; settings: 80 g/ha
Outline: (§1)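 Visual rating at 3 weeks vs untreated pots; 0–100% scale, 100% = plants died. Treatment: aqueous WP/EC spray onto covering soil, 600–800 l/ha, 0.2% wetter, seeds in sandy loam.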

[2] = tested on: Matricaria inodora; assay: Pre-emergence herbicidal action against MATIN; settings: visual score after 3 weeks vs untreated controls
Outline: as §1

[3] = tested on: Digitaria sanguinalis; assay: Post-emergence herbicidal action against DIGSA
Protocol: Seeds of monocotyledonous and dicotyledonous weed and crop plants are laid out in sandy loam soil in wood-fiber pots, covered with soil and cultivated in a greenhouse under good growth conditions. 2 to 3 weeks after sowing, the test plants are treated at the one-leaf stage. The compounds of the invention, formulated in the form of wettable powders (WP) or as emulsion concentrates (EC), are then sprayed onto the green parts of the plants in the form of an aqueous suspension or emulsion at a water application rate equivalent to 600 to 800 l/ha, with addition of 0.2% wetting agent. After the test plants have been left to stand in the greenhouse under optimal growth conditions for about 3 weeks, the action of the preparations is assessed visually in comparison to untreated controls (herbicidal action in percent (%): 100% activity=the plants have died, 0% activity=like control plants). […] The tables below illustrate, in an illustrative manner, the post-emergence herbicidal action of the compounds of the invention, the herbicidal activity being stated in percent.

[4] = tested on: Alopecurus myosuroides; assay: Post-emergence herbicidal action against ALOMY
Outline: (§2)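 Greenhouse pot plants in sandy loam were sprayed at the one-leaf stage, 2 to 3 weeks after sowing, with WP or EC formulations as aqueous suspension or emulsion (600 to 800 l/ha water, 0.2% wetting agent). About 3 weeks later, damage was scored visually against untreated controls as % action (100% = dead, 0% = like control).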

[5] = tested on: Abutilon theophrasti; assay: Post-emergence herbicidal action against ABUTH; settings: 20 g/ha
Outline: as §2

[6] = tested on: Amaranthus retroflexus; assay: Pre-emergence herbicidal action against AMARE; settings: visual score after 3 weeks vs untreated controls
Outline: as §1

[7] = tested on: Alopecurus myosuroides; assay: Pre-emergence herbicidal action against ALOMY; settings: 80 g/ha; visual score after 3 weeks vs untreated controls
Outline: as §1

[8] = tested on: Echinochloa crus-galli; assay: Pre-emergence herbicidal action against ECHCG; settings: 80 g/ha; visual score after 3 weeks vs untreated controls
Outline: as §1

[9] = tested on: Abutilon theophrasti; assay: Pre-emergence herbicidal action against ABUTH; settings: visual score after 3 weeks vs untreated controls
Outline: as §1

[10] = tested on: Amaranthus retroflexus; assay: Post-emergence herbicidal action against AMARE; settings: visual assessment about 3 weeks after treatment
Outline: as §2

[11] = tested on: Viola tricolor; assay: Post-emergence herbicidal action against VIOTR
Outline: as §2

[12] = tested on: Matricaria inodora; assay: Post-emergence herbicidal action against MATIN; settings: visual assessment about 3 weeks after treatment
Outline: as §2

[13] = tested on: Veronica persica; assay: Pre-emergence herbicidal action against VERPE
Outline: as §1

[14] = tested on: Echinochloa crus-galli; assay: Post-emergence herbicidal action against ECHCG; settings: visual assessment about 3 weeks after treatment
Outline: as §2

[15] = tested on: Setaria viridis; assay: Post-emergence herbicidal action against SETVI; settings: visual assessment about 3 weeks after treatment
Outline: as §2

[16] = tested on: Viola tricolor; assay: Pre-emergence herbicidal action against VIOTR
Outline: as §1

[17] = tested on: Veronica persica; assay: Post-emergence herbicidal action against VERPE; settings: 20 g/ha, visual assessment about 3 weeks after treatment
Outline: as §2

[18] = tested on: Digitaria sanguinalis; assay: Pre-emergence herbicidal action against DIGSA
Outline: as §1

[19] = tested on: Pharbitis purpurea; assay: Post-emergence herbicidal action against PHBPU; settings: 20 g/ha, visual assessment about 3 weeks after treatment
Outline: as §2

[20] = tested on: Avena fatua; assay: Pre-emergence herbicidal action against AVEFA; settings: 80 g/ha; visual score after 3 weeks vs untreated controls
Outline: as §1

[21] = tested on: Avena fatua; assay: Post-emergence herbicidal action against AVEFA; settings: 20 g/ha, visual assessment about 3 weeks after treatment
Outline: as §2

Compound | Pre-emergence action against SETVI [1] [%] | Pre-emergence action against MATIN ([2]; 80 g/ha) [%] | Post-emergence action against DIGSA in % ([3]; 20 g/ha) [%] | Post-emergence action against ALOMY ([4]; 20 g/ha) [%] | Pre-emergence action against AMARE ([6]; 80 g/ha) [%] | Pre-emergence action against ALOMY [7] [%] | Pre-emergence action against ECHCG [8] [%] | Pre-emergence action against ABUTH ([9]; 20 g/ha) [%] | Pre-emergence action against ABUTH ([9]; 80 g/ha) [%] | Post-emergence action against AMARE in % ([10]; 5 g/ha) [%] | Post-emergence action against AMARE in % ([10]; 20 g/ha) [%] | Post-emergence action against VIOTR in % ([11]; 5 g/ha) [%] | Post-emergence action against VIOTR in % ([11]; 20 g/ha) [%] | Post-emergence action against MATIN in % ([12]; 20 g/ha) [%] | Post-emergence action against ECHCG in % ([14]; 20 g/ha) [%] | Post-emergence action against SETVI in % ([15]; 20 g/ha) [%] | Pre-emergence action against VIOTR ([16]; 20 g/ha) [%] | Pre-emergence action against VIOTR ([16]; 80 g/ha) [%] | Pre-emergence action against DIGSA ([18]; 20 g/ha) [%] | Pre-emergence action against DIGSA ([18]; 80 g/ha) [%] | further results
CCn1nnnc1NC(=O)c1ccc(C(F)(F)F)c(C(=O)N(C)C)c1C [Example 2-19] | 100 | 90 | 90 | 80 | 100 | 90 | 90 | 80 | 100 | 80 | 90 | 80 | 100 | 80 | 90 | 80 | 80 | 100 | 100 | 100 | Post-emergence action against ABUTH [5]: 100%; Pre-emergence action against VERPE ([13]; 80 g/ha): 90%; Post-emergence action against SETVI in % ([15]; 5 g/ha): 80%; Post-emergence action against VERPE in % [17]: 80%
CCn1nnnc1NC(=O)c1ccc(C(F)(F)F)c(C(=O)N(C)C2CC2)c1C [Example 2-21] | 100 | 100 | 90 | 90 | 100 |  | 100 |  | 100 | 100 | 100 | 100 | 100 | 90 | 90 | 100 | 100 | 100 | 100 | 100 | Pre-emergence action against MATIN ([2]; 20 g/ha): 90%; Post-emergence action against DIGSA in % ([3]; 5 g/ha): 80%; Post-emergence action against ALOMY ([4]; 5 g/ha): 80%; Pre-emergence action against AMARE ([6]; 20 g/ha): 100%; Post-emergence action against PHBPU in % [19]: 90%; Post-emergence action against MATIN in % ([12]; 5 g/ha): 80%; Pre-emergence action against VERPE ([13]; 20 g/ha): 80%; Pre-emergence action against VERPE ([13]; 80 g/ha): 100%; Post-emergence action against ECHCG in % ([14]; 5 g/ha): 90%; Post-emergence action against SETVI in % ([15]; 5 g/ha): 80%; Pre-emergence action against AVEFA [20]: 80%
CCN(CC)C(=O)c1c(C(F)(F)F)ccc(C(=O)Nc2nnnn2CC)c1Cl [Example 2-135] | 100 | 100 | 90 | 90 | 100 | 90 | 100 | 90 | 100 | 80 | 90 |  |  | 80 | 80 | 80 | 100 | 100 | 80 | 90 | Pre-emergence action against MATIN ([2]; 20 g/ha): 90%; Post-emergence action against DIGSA in % ([3]; 5 g/ha): 80%; Pre-emergence action against AMARE ([6]; 20 g/ha): 100%; Post-emergence action against AVEFA in % [21]: 80%
